Results from ChEMBL document CHEMBL1201862, “PubChem BioAssay data set” (2004).
Calls of active or inactive are those of the source.

Columns and labels:
[1] = Luminescence Cell-Based Dose Confirmation HTS to Identify Activators of 5'UTR Stem-Loop Driven Alpha-Synuclein mRNA Translation in H4 Neuroglioblastoma Cells. [Related pubchem assays: 1829 (Project Summary), 1814 (Primary HTS)]; format: functional
[2] = Luminescence Cell-Based Dose Response HTS to Identify Activators of Luciferase Translation or Activity in H4 […] Cells. [Related pubchem assays: 1829 (Project Summary), 1814 (Primary HTS)]; format: functional
H4 = assay: Luminescence Cell-Based Dose Response HTS to Identify Activators of 5'UTR Stem-Loop Driven Prion Protein mRNA Translation in H4 Neuroglioblastoma Cells. [Related pubchem assays: 1829 (Project Summary), 1814 (Primary HTS)]; format: functional; conditions: Homo sapiens
Vero = assay: cells; format: functional; conditions: Chlorocebus sabaeus
[3] = molecular target: FAD-linked sulfhydryl oxidase ALR (Homo sapiens, UniProt P55789); assay: ALR-catalysed DTT oxidation blockers – biochemical, H2O2 detection, luminescence, cherry-pick, dose response (AID 493248)
Sequence of FAD-linked sulfhydryl oxidase ALR (P55789 whole entry): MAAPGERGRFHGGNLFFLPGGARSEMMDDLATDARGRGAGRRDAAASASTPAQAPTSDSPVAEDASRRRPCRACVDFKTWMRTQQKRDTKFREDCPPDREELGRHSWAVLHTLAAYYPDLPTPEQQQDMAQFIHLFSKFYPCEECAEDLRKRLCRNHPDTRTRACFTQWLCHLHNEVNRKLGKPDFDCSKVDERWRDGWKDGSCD

BJ [4] = assay: BJ-TERT fibroblast viability loss – cell-based, RAS-independent, luminescence, dose response (AID 1933); format: functional; conditions: Homo sapiens
BJ [5] = assay: cells; format: functional, cell-based; conditions: Homo sapiens
BJ [6] = assay: BJ-TERT-LT-ST fibroblast viability loss – cell-based, RAS-independent, luminescence, dose response (AID 1935); format: functional; conditions: Homo sapiens;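 also: BJ fibroblasts immortalized with TERT plus LT and ST oncogenes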
[7] = DRD fibroblast viability loss – cell-based, non-viral oncogenic, luminescence, dose response (AID 1934); format: functional; conditions: Homo sapiens
[8] = molecular target: T1, Ubiquitin-conjugating enzyme E2 N (Homo sapiens, UniProt P61088); format: functional;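 also: Dose-response confirmation in a TR-FRET assay detecting UBC13-driven polyubiquitin chain formation, inhibition measured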
T1 sequence (P61088 whole entry): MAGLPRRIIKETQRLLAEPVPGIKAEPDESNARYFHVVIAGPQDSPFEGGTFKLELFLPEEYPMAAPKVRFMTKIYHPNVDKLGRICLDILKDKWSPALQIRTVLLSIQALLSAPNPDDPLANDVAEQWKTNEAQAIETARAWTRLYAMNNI

Cytochrome P450 2C19 = Cytochrome P450 2C19 (Homo sapiens, UniProt P33261); assay: Cytochrome panel assay with activity outcomes. Panel member name: p450-cyp2c19 Compounds with AC50 equal or less than 10 uM are considered active; format: functional
Sequence of Cytochrome P450 2C19 (P33261 whole entry): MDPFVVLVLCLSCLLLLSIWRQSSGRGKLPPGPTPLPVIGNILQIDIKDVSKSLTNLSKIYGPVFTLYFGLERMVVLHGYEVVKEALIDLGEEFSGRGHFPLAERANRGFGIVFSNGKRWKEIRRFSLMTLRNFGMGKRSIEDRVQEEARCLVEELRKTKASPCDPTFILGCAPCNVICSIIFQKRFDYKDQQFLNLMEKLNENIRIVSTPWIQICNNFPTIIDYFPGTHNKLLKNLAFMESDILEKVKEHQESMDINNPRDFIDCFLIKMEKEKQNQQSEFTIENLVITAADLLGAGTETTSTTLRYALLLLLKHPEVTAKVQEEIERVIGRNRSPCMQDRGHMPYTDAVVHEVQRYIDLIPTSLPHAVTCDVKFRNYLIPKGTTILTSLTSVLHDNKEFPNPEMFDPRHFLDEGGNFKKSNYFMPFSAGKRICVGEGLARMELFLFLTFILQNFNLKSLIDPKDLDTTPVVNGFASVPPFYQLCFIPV

Cytochrome P450 2C9 = Cytochrome P450 2C9 (Homo sapiens, UniProt P11712)
Sequence of Cytochrome P450 2C9 (P11712 whole entry): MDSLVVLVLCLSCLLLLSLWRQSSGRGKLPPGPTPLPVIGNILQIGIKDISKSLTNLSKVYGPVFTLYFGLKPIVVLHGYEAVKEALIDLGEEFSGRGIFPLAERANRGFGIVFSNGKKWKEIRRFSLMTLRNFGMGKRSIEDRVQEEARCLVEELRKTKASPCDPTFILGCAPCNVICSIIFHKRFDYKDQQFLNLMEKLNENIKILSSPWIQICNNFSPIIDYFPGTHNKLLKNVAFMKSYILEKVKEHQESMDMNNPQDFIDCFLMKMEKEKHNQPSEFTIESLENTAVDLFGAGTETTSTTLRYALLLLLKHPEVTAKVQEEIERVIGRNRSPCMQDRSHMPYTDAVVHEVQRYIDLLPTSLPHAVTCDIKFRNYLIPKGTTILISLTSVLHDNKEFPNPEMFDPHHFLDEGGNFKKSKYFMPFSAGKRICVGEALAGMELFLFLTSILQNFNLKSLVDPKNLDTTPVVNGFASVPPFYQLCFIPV

[9] = microbe, parasite or virus in culture; format: functional; conditions: Mycobacterium tuberculosis
INS1 = assay: INS-1E survival protection against cytokine death – cell-based, luminescence, retest, dose response (AID 449756); format: functional; conditions: Rattus norvegicus;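 also: cell death triggered by IL-1 beta plus TNF-alpha plus IFN-gamma mixture; protective hits raise ATP signal compared with cytokine alone wells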
[10] = blockers of HIV-1 envelope-mediated cell-cell fusion – cherry-pick, dose response (AID 652057); format: functional, cell-based
[11] = viability loss in CEM21 cells – cell-based, CellTiter-Glo luminescence, cherry-picked, cytotoxicity control for viral fusion inhibitor project, dose response (AID 652042); format: functional;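 also: potency for signal decrease meaning cytotoxicity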
[12] = blockers of HIV-1 ZM109 envelope-driven cell-cell fusion – HeLa effector, CEM target cells, luciferase, cherry-pick, dose response (AID 652058); format: functional, cell-based;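 also: luciferase signal from HIV-1 Env mediated cell-cell fusion of effector and target cells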
[13] = off-target signal loss in HeLa-CEM21 co-culture – HeLa F-luc CTL cells, cherry-picked, counter-screen for HIV-1 Env fusion inhibitor project, dose response (AID 652040); format: functional, cell-based;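 also: potency for signal decrease marking cytotoxic or nonspecific inhibition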
[14] = HIV-1 AD8 envelope cell-cell fusion blockers – cherry-pick, dose response (AID 652062); format: functional, cell-based;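 also: luciferase signal from cell-cell fusion driven by HIV-1 clade B AD8 Env; potency is for inhibitors of fusion seen as a drop in luminescence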
[15] = Luminescence Cell-Based Dose Retest to Confirm Inhibitors of Cancer Stem Cells. [Related pubchem assays (depositor defined):AID2717, AID2721]; format: functional; conditions: Homo sapiens

Q: With `N#CC1=C2Sc3ccccc3N2CCCC1=O` as the molecule, how does the EC50 [1] read?
A: 0.318 µM (active)

Q: And the EC50 [2]?
A: 59 µM (active)

Q: And the EC50 (H4)?
A: 19.7 µM (active)

Q: With `CCOC(=O)N1CCN(C(=O)CCN2C(=O)/C(=C\c3ccccc3OC)SC2=S)CC1` as the molecule, how does the CC50 (Vero) read?
A: > 25 µM (active)

Q: For `COc1ccccc1N1CCN(S(=O)(=O)c2cccc(F)c2)CC1`, which AC50 [3] is on record?
A: 28.8 µM (active)

Q: What does the source list for `COc1ccc(-n2c(SCC(=O)c3c(N)n(C)c(=O)n(C)c3=O)nc3ccccc32)cc1`?
A: EC50 (BJ [4]): > 150 µM (not active); EC50 (BJ [5]): > 150 µM (not active); EC50 (BJ [6]): > 150 µM (inconclusive); EC50 [7]: > 150 µM (not active)

Q: For `COc1ccc(NC(=O)C[S+]([O-])CC(=O)Nc2cc(Cl)ccc2OC)cc1` (stereo not drawn), which IC50 [8] is on record?
A: > 20 µM (inactive)

Q: Which IC50 [8] does the source give for `Cc1nc2ccccc2c(=O)n1NC(=O)/C=C/c1ccc(Br)cc1` here?
A: > 20 µM (inactive)

Q: For `NC1=NC[C@H](Cc2ccc(O)cc2)N1CCc1cc(C(F)(F)F)cc(C(F)(F)F)c1`, which IC50 [8] is on record?
A: > 20 µM (inactive)

Q: For `NC(=O)NC(CC(=O)NNC(=O)c1ccccn1)c1ccccc1Cl` (stereo not drawn), which IC50 [8] is on record?
A: > 20 µM (inactive)

Q: Which results are given for `Cl.OC1(c2ccc(F)cc2)CCNC1` (stereo not drawn)?
A: AC50 (Cytochrome P450 2C19): inconclusive; AC50 (Cytochrome P450 2C9): inconclusive

Q: Which CC50 (Vero) does the source give for `COc1ccc(C(=O)Cn2c(C(C)=O)nc3ccccc32)cc1` here?
A: 11.5 µM (active)

Q: For `O=C(O)c1cc(N/N=C/c2cccs2)ccc1Cl`, which EC50 [1] is on record?
A: 19 µM (active)

Q: What about the EC50 [2] of the same molecule?
A: 0.632 µM (active)

Q: And the EC50 (H4)?
A: 3.38 µM (active)

Q: For `Cc1cccc(CNc2ncnc3ccc(-c4ccc5c(c4)OCCO5)cc23)c1`, which CC50 [9] is on record?
A: > 40 µM (active)

Q: What about the AC50 (INS1) of the same molecule?
A: 7.74 µM (active)

Q: What about the AC50 [10] of the same molecule?
A: 27.9 µM (active)

Q: And the AC50 [11]?
A: 5.98 µM (active)

Q: What about the AC50 [12] of the same molecule?
A: 5.84 µM (active)

Q: What about the AC50 [13] of the same molecule?
A: > 70 µM (inactive)

Q: What about the AC50 [14] of the same molecule?
A: 8.48 µM (active)

Q: For `CCN(CC)CCOc1ccc(/C(=C(/Cl)c2ccccc2)c2ccccc2)cc1` [ENCLOMIPHENE], which AC50 [15] is on record?
A: 1.6 µM (active)

Q: And the IC50 [8]?
A: > 20 µM (inactive)
